Reference: patent US10981957B2, “Peptides having antimicrobial activity and new enzyme capable of converting L-configured residue in D-configured amino acid in a peptide” (INSTITUT NATIONAL DE RECHERCHE POUR L'AGRICULTURE, …, priority 2015, dated 2021)
Like-named read-outs stand apart in the source and are kept apart here. Square brackets hold non-standard residues; d marks the D form. Ends that are not written are not given here. Peptide text beside a SMILES is read from it. d(aIle) = CC[C@H](C)[C@@H](N)C(=O)O

What was measured:
B. subtilis [1] = assay type: cell-based, Bacillus subtilis; details: for Growth of B. subtilis in liquid LB medium: OD at 600 nm, FIG. 5B, FIG. 8a
Source text: (§1) FIG. 5—Activity of YydF18-49 of YydG. (FIG. 5A) Plate growth inhibition assay of B. subtilis in the presence of YydF18-49 or the epimierized product YydFb. (FIG. 5B) Growth of Bacillus subtilis in LB medium in the absence of peptide (□) or in the presence of the YydF18-49 peptide with a free C-terminus: Ac-[…] (SEQ ID No 20) containing either no modification (▪), a D-allo-lle (♦), a D-Val (⋄) or two-epimerized residues: Ac-GLLDESQKLAKVNDLWYF{d-V}KSKENRW{d-I}LGSGH (SEQ ID No 20) (▴). The OD values are the means of 3 independent cultures.
FIG. 8—(A) Growth of B. subtilis in liquid LB medium in the presence of YydF33-49 or YydF33-49DD. B. subtilis was grown in LB medium alone (♦), in the presence of YydF33-49 (□) (SEQ ID NO: 76, top) or YydF33-49DD (▪) (SEQ ID NO: 75, bottom). Each measurement is the mean of three growth experiments with the SD indicated. The epimerized residues are in black. (b) Growth ratio of B. subtilis in presence of YydF18-49 (100 μM) or YydF18-49DD (100, 10 or 1 μM). Ratios were determined by comparison with growth in the absence of peptide. (c) Growth ratio of B. subtilis in presence of YydF33-49 or YydF33-49DD (100, 10, 1, 0.1 or 0.01 μM). Ratios were determined by comparison with bacterial growth in the absence of peptide.
FIG. 9—Growth of B. subtilis in liquid LB medium in the presence of YydF18-49 (□) or after addition (arrow) of the YydF18-49DD (▪) after 3 hours of growth. Each measurement is the mean of three growth experiments with the SD indicated.
FIG. 10—Growth of B. subtilis in liquid LB medium in the presence of […] (a), YydF33_49AA (b) (SEQ ID NO: 66), YydF33_49vv (c) (SEQ ID NO: 67), YydF33_49II (d) (SEQ ID NO: 68), Peptide-SA1 (e) (SEQ ID NO: 62), Peptide-SA2 (f) (SEQ ID NO: 63), Peptide-SE (g) (SEQ ID NO: 64) or Peptide-SP (h) (SEQ ID NO: 65) at 100 μM. In bold, epimerized residues.
(§2) Inhibition Assay on Liquid Medium
(§3) An overnight culture of the bacterial strain to be assayed was freshly inoculated to sterile LB liquid medium. After 4 hours of bacterial growth at 37° C., the medium was diluted to 1/10,000 and inoculated into sterile liquid LB or BHI medium. Peptide solution was added ( 1/100) to a final concentration ranging from 0.01 to 100 μM and OD at 600 nm was recorded continuously using a Tecan microplate reader (Infinite® 200 PRO series).

Streptococcus agalactiae = assay: Inhibition assay on liquid medium, Streptococcus agalactiae in BHI medium; assay type: cell-based; details: peptide at 100 μM; FIG. 12
Description: (§4) FIG. 12—Growth of Streptococcus agalactiae in liquid BHI medium in the presence of YydF33-49 (a), YydF33_49AA (b) (SEQ ID NO: 66), YydF33_49VV (c) (SEQ ID NO: 67), YydF33_49II (d) (SEQ ID NO: 68), Peptide-SA1 (e) (SEQ Ill NO: 62), Peptide-SA2 (f) (SEQ ID NO: 63), Peptide-SE (g) (SEQ ID NO: 64) or Peptide-SP (h) (SEQ ID NO: 65) at 100 μM. In bold, epimerized residues.
as §2, §3

B. subtilis [2] = assay: Inhibition assay on solid medium (plate growth inhibition assay); assay type: cell-based, Bacillus subtilis; details: 200 μg of peptide spotted, 37° C., FIG. 5A
Source text: as §1
Inhibition Assay on Solid Medium
An overnight culture of the bacterial strain to be assayed was freshly inoculated to sterile BHI liquid medium. After 4 hours of bacterial growth at 37° C., the medium was diluted to 1/1000 and inoculated into a soft agarose medium pre-heated at 42° C. The agarose medium containing bacteria was overlaid on a previously jellified sterile BHI agarose layer. 200 μg of peptide was spotted onto the plate and bacterial growth proceeded at 37° C.

Enterococcus faecalis = assay: Inhibition assay on liquid medium, Enterococcus faecalis in BHI medium; assay type: cell-based; details: peptide at 100 μM; FIG. 11
Description: as §4, with “11—Growth” for “12—Growth”, “Enterococcus faecalis” for “Streptococcus agalactiae”, “ID” for “Ill”
as §2, §3

Compound | Growth of B. subtilis in liquid LB medium (B. subtilis [1]) | Growth of Streptococcus agalactiae in liquid BHI medium (Streptococcus agalactiae) | Growth of Enterococcus faecalis in liquid BHI medium (Enterococcus faecalis) | other results
CC[C@H](C)[C@@H](NC(=O)[C@H](Cc1c[nH]c2ccccc12)NC(=O)[C@H](CCCNC(=N)N)NC(=O)[C@H](CC(N)=O)NC(=O)[C@H](CCC(=O)O)NC(=O)[C@H](CCCCN)NC(=O)[C@H](CO)NC(=O)[C@H](CCCCN)NC(=O)[C@H](NC(=O)[C@H](Cc1ccccc1)NC(=O)[C@H](Cc1ccc(O)cc1)NC(=O)[C@@H](N)Cc1c[nH]c2ccccc12)C(C)C)C(=O)N[C@@H](CC(C)C)C(=O)NCC(=O)N[C@@H](CO)C(=O)NCC(=O)N[C@@H](Cc1c[nH]cn1)C(=O)O [YydF33-49DD] (H-WYF[dV]KSKENRW[d(aIle)]LGSGH-OH; N-terminus and C-terminus assumed) | inhibit bacterial growth | inhibited |  | MIC (B. subtilis [1]): < 1 µM
Ac-GLLDESQKLAKVNDLWYFVKSKENRWILGSGH [YydF18-49] |  |  |  | inhibition growth of B. subtilis (plate growth inhibition assay) (B. subtilis [2]): devoid of activity; cell density after addition of peptide at mid-exponential phase (B. subtilis [1]; B. subtilis, liquid LB medium, peptide added after 3 hours of growth, FIG. 9): a clear slow down followed by a decrease of the cell density
Ac-GLLDESQKLAKVNDLWYF{d-V}KSKENRW{d-I}LGSGH [YydF18-49DD] | bacterial growth inhibition |  |  | inhibition growth of B. subtilis (plate growth inhibition assay) (B. subtilis [2]): strong inhibition growth; Growth of B. subtilis in liquid LB medium (B. subtilis [1]; listed as epimerized peptide): strong and persistent inhibition
WYFAKSKENRWALGSGH (YydF33_49AA) |  | inhibited | totally inhibited | 
WYFIKSKENRWILGSGH (also: epimerized D-residues, positions not given here) [YydF33-49II] |  | not |  | 
WYFVKSKENRWILGSGH [YydF33-49] | Only the YYdF33-49DD peptide proved to inhibit bacterial growth |  |  | 
WYFVKSKENRWVLGSGH (also: epimerized D-residues, positions not given here) [YydF33-49VV] |  | inhibited |  | 
WYFVKSKQNRWVVGSGH (Peptide-SE) |  | inhibitors | totally inhibited | 
WYFVRNSKNRWVAGSAH (Peptide-SA2) |  | inhibitors | significantly delayed | 
WYFVRSSKNRWVAGSAH (Peptide-SA1) |  | inhibitors | significantly delayed | 
